# Data from US20080276732A1, “INDICATOR FOR ORALLY ADMINISTERED COMPOSITIONS” (MULTI FORMULATIONS LTD., priority 2007, published 2008).
# “And” between values parts separate entries of the source, which are not always exact repeats. Equal entries are not always repeated. “Also recorded” adds a separate entry of the source. Where two headings read alike, the source gives them in different places.
# Key:
# subjects [1] = assay: Testing the efficacy of Picamilon in capsule form: perceived sensory effects after oral administration; type: in vivo, human; conditions: single 100 mg oral dose of Picamilon
# Experimental: (§1) In order to test the ability of orally administered Picamilon to induce a sensory effect a test was conducted. Six subjects were given a capsule containing Picamilon and asked to report on any perceived sensory effects. Each capsule contained 100 mg of Picamilon and filled to 150 mg with lactose as a filler-binder.
# subjects [2] = assay: Testing the efficacy of Yohimbine in capsule form: perceived sensory effects after oral administration; type: in vivo, human
# Experimental: as §1, with “Yohimbine” for “Picamilon”, “Four” for “Six”, “5” for “100”
# individuals = conditions: Niacin at pharmacologically active doses; Benyo et al. 2005; cited from earlier work
# subjects [3] = conditions: single 30 mg oral dose of Niacin
# Experimental: In order to test the ability of orally administered Niacin to induce a sensory effect a test was conducted. Five subjects were given a capsule containing Niacin and asked to report on any perceived sensory effects. Each capsule contained 30 mg of Niacin and filled to 150 mg with lactose as a filler-binder. Subjects were informed of the capsule contents and of possible effects. Subjects were asked to report any sensory effects felt, the time to onset and the duration of any effects.
# [4] = per subject, subject 1 separately for warmth and tingling
# [5] = single 5 mg oral dose of Yohimbine, per subject
structure (smiles),measurement,setting,value
"O=C(O)CCCNC(=O)c1cccnc1 [Picamilon, N-nicotinoyl-gamma-aminobutyric acid]",Sensory Effect(s),"subjects [1]; capsule, one line per subject (1-6)",tingling; also recorded: relaxation; also recorded: warmth - body
same,Duration,subjects [1]; per subject,1.5 h
same,Duration,subjects [1]; [4],15-20 min and 45 min and 5 min (warmth) and 15 min
same,Time to Onset,subjects [1]; [4],15 min and 15-20 min (2×) and 10 min (warmth) and 30 min
same,subjects who reported noticeable effects,subjects [1]; six subjects,four of the six
COC(=O)[C@@H]1[C@H]2C[C@H]3c4[nH]c5ccccc5c4CCN3C[C@@H]2CC[C@@H]1O [Yohimbine],onset time and duration of perceived sensory effects on average compared with Niacin and Picamilon,"subjects [2]; 5 mg Yohimbine, oral",longer onset time and longer duration
same,subjects who reported noticeable effects,"subjects [2]; single 5 mg oral dose of Yohimbine, four subjects",three of the four
same,Duration,subjects [2]; [5],10 to 15 min and 60 min and 120 min
same,Time to Onset,subjects [2]; [5],1 h and 0.5 h and 0.25 h
"O=C(O)c1cccnc1 [Niacin, nicotinic acid]",duration of the flushing effect,individuals,about 1 hr
same,Duration,"subjects [3]; capsule, one line per subject",45 min (2×) and 15 min
same,Time to Onset,"subjects [3]; capsule, one line per subject",10 to 15 min and 20 min and 15 min
same,subjects who experienced transient sensory effects,subjects [3]; five subjects,three of the five
same,time until the individual perceives a sensory effect (summary),subjects [3]; summary of Table 1,≤ 15 min
